Results taken from PMC11150261, “Evaluation of antibacterial, cytotoxicity, and apoptosis activity of novel chromene-sulfonamide hybrids synthesized under solvent-free conditions and 3D-QSAR modeling studies” (Scientific Reports, 2024).
≈ marks a conversion by molar mass, not a printed value. Entries after “also recorded” stand apart in the source; their conditions may differ. Read-outs that look alike come from different tables or passages of the source.

How the values were obtained:
E. coli ATCC 25922 = assay: Broth microdilution MIC; format: cell-based; settings: for MIC: Escherichia coli, ATCC25922; for MIC effect on E. coli: SAR effect diagram
Description: (§1) A broth microdilution method was utilized to explore the minimum inhibitory concentrations (MIC) of all the newly synthesized compounds against E. coli ATCC 25922 and S. aureus ATCC 25923. Test compounds were prepared using dimethyl sulfoxide (DMSO) as a stock solution, followed by serial dilutions in Mueller Hinton broth containing up to one percent DMSO. At the end, a diluted bacterial suspension from a 0.5 McFarland tube was added to all the wells (the final volume of each well was 1 × 10^5 CFU/ml). In the growth control, a culture medium with bacteria was used as a positive control, and a culture medium without bacteria was used as a negative control (sterility control). The MIC was the lowest concentration of the synthesized compounds that produced no growth on the plate. Sulfisoxazole, functioning as a sulfonamide antibiotic, and gentamicin were employed in a comparative analysis of antibacterial activity, cytotoxicity, and apoptosis assessment.

S. aureus ATCC 25923 = assay: Broth microdilution MIC; format: cell-based; settings: for MIC effect on S. aureus: SAR effect diagram, Table 6; for MIC: Staphylococcus aureus, ATCC25923
Description: as §1

[1] = Apoptosis Annexin V binding assay (flow cytometry); format: cell-based; settings: mouse, L929 fibroblast cells; L929, IC50 concentration, Annexin V-FITC/PI
Description: (§2) To detect apoptosis, the Annexin V binding assay was used. The assay was performed according to the manufacturer's instructions using a FITC Annexin V Apoptosis Detection Kit with PI from BioLegend® (San Diego, California). To conduct this test, the fibroblast L929 cell line (Pasteur Institute, Tehran, Iran) was treated with various concentrations of the newly synthesized compounds and then incubated for 24 h at 37 °C with 5% CO2. Subsequently, each well's supernatant was removed and the cells were washed with PBS. Each well was then filled with 500 μl of Annexin-binding buffer (10 mM HEPES, 140 mM NaCl, and 2.5 mM CaCl2, pH 7.4) and 10 μl of Annexin V and PI. For 15 min, the plates were incubated at room temperature and kept away from light. After incubation, using a BD FACSCalibur flow cytometer (Biosciences, San Jose, CA, USA), the cells were examined after incubation. FlowJo software (version 10.5.3, TreeStar Incorporated, Ashland, OR) was used to analyze flow cytometry data.

[2] = system: fibroblast L929 cell line; assay: Apoptosis Annexin V binding assay (flow cytometry); format: cell-based; settings: L929 cells, 24 h, IC50 concentration of each compound
Description: as §2

fibroblast L929 cells = assay: Cytotoxicity assay by MTT; format: cell-based; settings: Mus musculus, fibroblast L929 cell line, 24 h
Description: MTT was applied to evaluate the cytotoxicity of the newly synthesized compounds against fibroblast L929 cells (Pasteur Institute, Tehran, Iran). Briefly, 100 μl of cell suspension (1 × 10^4 cells/well) in RPMI 1640 medium, as seeded in 96-well microplates and incubated for 24 h (37 °C, 5% CO2 air humidified). After removing the old media, 100 µl of each of the newly synthesized compounds was added to each well at different concentrations. The plates were incubated for another 24 h in the same condition. To determine the positive and negative controls, doxorubicin and DMSO were used. Cell survival was determined by adding 10 µL of an MTT solution (5 mg/ml in PBS) to each well and incubating at 37 °C for 3 h. The previous MTT-containing media was then removed, and 100 µL DMSO was pipetted into each well to dissolve the produced formazan crystals. Using an ELISA plate reader (Startfix-2100, Awareness, USA), absorbance was measured at 570 nm. By plotting the percentage of cytotoxicity versus concentration of the produced compounds, the concentrations that inhibit half of the cell population (IC50) were determined. A mean and standard deviation (SD) are used to represent the results. The percentage cell viability was calculated using the formula: Viability=Absorbance \, of \, treated \, cells-background \, absorbance(b)/Absorbance \, of \, untreated \, cells(c)-background \, absorbance(b)×100 where (b) = blank, and (c) = control.

[3] = Table 6, antibacterial activity against E. coli, read-out: MIC for E. coli ATCC 25922
[4] = microdilution method, read-out: Minimum inhibitory concentrations (MIC) E. coli ATCC 25922
[5] = Table 7, read-out: MIC for S. aureus
[6] = microdilution method, read-out: Minimum inhibitory concentrations (MIC) S. aureus ATCC 25923

For COc1ccc(C2C(C#N)=C(N)Oc3cc(NS(=O)(=O)c4ccc(C)cc4)ccc32)cc1 (centres unmarked) [1b, N-[2-amino-3-cyano-4-(4-methoxy-phenyl)-4H-chromene-7-yl]-4-methyl-benzene sulfonamide], which MIC (E. coli ATCC 25922; [3]) is on record?
The MIC was 256 µg/mL (≈ 572 µM).

And the MIC (E. coli ATCC 25922; [4])?
The MIC was 256 µg/mL (≈ 572 µM).

What about the “MIC effect on E. coli” value (E. coli ATCC 25922) of the same molecule?
The value was “Neutral”.

What about the “MIC effect on S. aureus” value (S. aureus ATCC 25923) of the same molecule?
Its value is “Negative”.

And the MIC (S. aureus ATCC 25923; [5])?
The MIC was greater than 512 µg/mL.

And the MIC (S. aureus ATCC 25923; [6])?
The MIC was greater than 512 µg/mL.

And the viability at 24 h [1]?
The viability at 24 h was 55%.

And the induced cell death [2]?
Its induced cell death is 42.29%.

And the IC50 (fibroblast L929 cells)?
The IC50 was 139 µg/mL (≈ 311 µM).

With COc1ccccc1C1C(C#N)=C(N)Oc2cc(NS(=O)(=O)c3ccc(C)cc3)ccc21 (centres unmarked) [2b, N-[2-amino-3-cyano-4-(2-methoxy-phenyl)-4H-chromene-7-yl]-4-methyl-benzene sulfonamide] as the molecule, how does the melting point read?
The melting point was 180 to 183 °C.

What about the MIC (E. coli ATCC 25922; [3]) of the same molecule?
The MIC was 128 µg/mL (≈ 286 µM).

What about the MIC (E. coli ATCC 25922; [4]) of the same molecule?
The MIC was 128 µg/mL (≈ 286 µM).

What about the “MIC effect on E. coli” value (E. coli ATCC 25922) of the same molecule?
The value was “Positive”.

What about the “MIC effect on S. aureus” value (S. aureus ATCC 25923) of the same molecule?
The value was “Negative”.

What about the MIC (S. aureus ATCC 25923; [5]) of the same molecule?
Its MIC is greater than 512 µg/mL.

And the MIC (S. aureus ATCC 25923; [6])?
The MIC was greater than 512 µg/mL.

And the IC50 (fibroblast L929 cells)?
Its IC50 is 229 µg/mL (≈ 512 µM).

With COc1ccc(C2C(C#N)=C(N)Oc3cc(NS(=O)(=O)c4ccc(C)cc4)ccc32)cc1OC (centres unmarked) [3b, N-[2-amino-3-cyano-4-(3,4-dimethoxy-phenyl)-4H-chromene-7-yl]-4-methyl-benzene sulfonamide] as the molecule, how does the melting point read?
The melting point was 127 to 130 °C.

And the MIC (E. coli ATCC 25922; [3])?
Its MIC is greater than 512 µg/mL.

What about the MIC (E. coli ATCC 25922; [4]) of the same molecule?
Its MIC is greater than 512 µg/mL.

And the “MIC effect on E. coli” value (E. coli ATCC 25922)?
The value was “neutral or negative; also recorded: Negative”.

What about the “MIC effect on S. aureus” value (S. aureus ATCC 25923) of the same molecule?
Its value is “Negative”.

And the MIC (S. aureus ATCC 25923; [5])?
Its MIC is greater than 512 µg/mL.

What about the MIC (S. aureus ATCC 25923; [6]) of the same molecule?
The MIC was greater than 512 µg/mL.

What about the IC50 (fibroblast L929 cells) of the same molecule?
The IC50 was 219 µg/mL (≈ 459 µM).

With Cc1ccc(S(=O)(=O)Nc2ccc3c(c2)OC(N)=C(C#N)C3c2ccc(Cl)cc2)cc1 (centres unmarked) [4b, N-[2-amino-3-cyano-4-(4-chloro-phenyl)-4H-chromene-7-yl]-4-methyl-benzene sulfonamide] as the molecule, how does the MIC (E. coli ATCC 25922; [3]) read?
The MIC was 128 µg/mL (≈ 283 µM).

And the MIC (E. coli ATCC 25922; [4])?
The MIC was 128 µg/mL (≈ 283 µM).

What about the “MIC effect on E. coli” value (E. coli ATCC 25922) of the same molecule?
Its value is “Positive”.

And the “MIC effect on S. aureus” value (S. aureus ATCC 25923)?
Its value is “Neutral”.

And the MIC (S. aureus ATCC 25923; [5])?
The MIC was 256 µg/mL (≈ 566 µM).

And the MIC (S. aureus ATCC 25923; [6])?
Its MIC is 256 µg/mL (≈ 566 µM).

And the viability at 24 h [1]?
The viability at 24 h was 77.4%.

And the induced cell death [2]?
Its induced cell death is 22.2%.

What about the IC50 (fibroblast L929 cells) of the same molecule?
Its IC50 is 152 µg/mL (≈ 336 µM).

Which melting point does the source give for CC(=O)Nc1ccc(S(=O)(=O)Nc2ccc3c(c2)OC(N)=C(C#N)C3c2ccccc2)cc1 (centres unmarked) [5b, N-[4-(2-amino-3-cyano-4-phenyl-4H-chromen-7-ylsulfamoyl)-phenyl]-acetamide] here?
The melting point was 240 to 243 °C.

And the MIC (E. coli ATCC 25922; [3])?
Its MIC is 128 µg/mL (≈ 278 µM).

And the MIC (E. coli ATCC 25922; [4])?
Its MIC is 128 µg/mL (≈ 278 µM).

And the “MIC effect on E. coli” value (E. coli ATCC 25922)?
The value was “Positive”.

And the “MIC effect on S. aureus” value (S. aureus ATCC 25923)?
Its value is “Positive”.

And the MIC (S. aureus ATCC 25923; [5])?
Its MIC is 128 µg/mL (≈ 278 µM).

What about the MIC (S. aureus ATCC 25923; [6]) of the same molecule?
Its MIC is 128 µg/mL (≈ 278 µM).

And the IC50 (fibroblast L929 cells)?
Its IC50 is 173 µg/mL (≈ 376 µM).

For CC(=O)Nc1ccc(S(=O)(=O)Nc2ccc3c(c2)OC(N)=C(C#N)C3c2cccc(Oc3ccccc3)c2)cc1 (centres unmarked) [6b, N-[4-[2-amino-3-cyano-4-(3-phenoxy-phenyl)-4H-chromene-7-ylsulfamoyl]-phenyl}-acetamide], which “antibacterial effect on E. coli (MIC results)” value (E. coli ATCC 25922) is on record?
Its value is “robust antibacterial effect”.

What about the MIC (E. coli ATCC 25922; [3]) of the same molecule?
Its MIC is 64 µg/mL (≈ 116 µM).

And the MIC (E. coli ATCC 25922; [4])?
Its MIC is 64 µg/mL (≈ 116 µM).

And the “MIC effect on E. coli” value (E. coli ATCC 25922)?
The value was “Positive”.

What about the “antibacterial effect on S. aureus (MIC results)” value (S. aureus ATCC 25923) of the same molecule?
The value was “robust antibacterial effect”.

What about the “MIC effect on S. aureus” value (S. aureus ATCC 25923) of the same molecule?
Its value is “Neutral”.

And the MIC (S. aureus ATCC 25923; [5])?
The MIC was 256 µg/mL (≈ 463 µM).

What about the MIC (S. aureus ATCC 25923; [6]) of the same molecule?
Its MIC is 256 µg/mL (≈ 463 µM).

What about the viability at 24 h [1] of the same molecule?
Its viability at 24 h is 46%.

What about the induced cell death [2] of the same molecule?
Its induced cell death is 53.85%.

What about the IC50 (fibroblast L929 cells) of the same molecule?
Its IC50 is 114 µg/mL (≈ 206 µM).
